Laboratory results published in paper PMC10899790, “A bromodomain-independent mechanism of gene regulation by the BET inhibitor JQ1: direct activation of nuclear receptor PXR” (Nucleic Acids Research, 2023).
Entries after “also recorded” stand apart in the source; their conditions may differ.

Experiments:
[1] = biological target: T1, mouse PXR (mPXR) (Mus musculus, UniProt O54915); conditions: mPXR-transfected HepG2, 24 h; PCN as 100% control
T1 sequence (O54915 1-431): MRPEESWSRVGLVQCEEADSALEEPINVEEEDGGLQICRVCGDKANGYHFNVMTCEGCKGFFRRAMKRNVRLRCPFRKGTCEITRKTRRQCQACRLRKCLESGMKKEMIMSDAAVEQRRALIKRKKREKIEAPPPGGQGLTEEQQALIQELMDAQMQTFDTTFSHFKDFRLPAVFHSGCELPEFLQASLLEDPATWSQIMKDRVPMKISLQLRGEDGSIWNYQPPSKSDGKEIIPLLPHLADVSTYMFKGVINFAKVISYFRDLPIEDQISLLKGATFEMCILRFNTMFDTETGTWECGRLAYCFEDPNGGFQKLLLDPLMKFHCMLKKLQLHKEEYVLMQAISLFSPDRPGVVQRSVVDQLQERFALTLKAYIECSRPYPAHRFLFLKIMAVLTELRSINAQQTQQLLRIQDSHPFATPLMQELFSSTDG
Method: Assays were performed similarly as previously described with minor modifications ([30–32]). HepG2 cells (7.5 × 10^5/well) were plated in six-well tissue culture-treated plates. The following day, cells were co-transfected with pGL3-CYP3A4-luc (2 μg/well), pRL-CMV (200 ng/well) and 100 ng/well of either empty vector (pcDNA3), pcDNA3-FLAG-PXR, pCMV6-mPXR or pGL4.53-PGK-PXR using Lipofectamine 3000 (Thermo Fisher Scientific). Twenty-four hours after transfection, cells were trypsinized and suspended in phenol red-free DMEM (Thermo Fisher Scientific) supplemented with 5% charcoal/dextran-treated FBS (HyClone), and 1 × 10^4 cells/well in 25 μl media were added to white 384-well plates. […] After 24 h, the Dual-Glo Luciferase Assay System (Promega) and EnVision microplate reader (PerkinElmer) were used to measure firefly and Renilla luciferase activities. CMV-driven Renilla luciferase was used as an indicator of general transcriptional modulation by the test compounds and is plotted as fold change (FC) relative to DMSO controls. Assays utilizing pGL4.54[luc2/TK], pGL4.53[luc2/PGK], or pGL4.13[luc2/SV40] were similarly performed and normalized. For the PXR-responsive CYP3A4-luciferase reporter, the measured relative light units (RLU) were normalized for each well using equation (1),
RLUT0901317 represents the measured RLU from wells containing 1 μM T0901317. […]

[2] = system: HepG2 cells; assay: Cytotoxicity assay (CellTiter-Glo); type: cell-based, human; conditions: HepG2, 24 h
Method: HepG2 cells (1 × 10^4/well in 25 μl phenol red-free DMEM supplemented with 5% charcoal/dextran-treated FBS) were plated and treated as in the transactivation assays. After 24 h compound treatment, the CellTiter-Glo Luminescent Cell Viability Assay (Promega) and an EnVision microplate reader were used to assess cytotoxicity. DMSO wells with cells served as negative controls, and wells without cells served as positive controls. The averaged luminescence signal of the wells without cells was subtracted from the luminescence signals of all other wells, and the background subtracted values were normalized to DMSO-treated wells containing cells to obtain percent cell viability.

[3] = biological target: T2, PXR LBD (Homo sapiens, UniProt O75469); assay: TR-FRET PXR LBD SRC-1 recruitment assay; type: biochemical; conditions: percent relative to 10 μM T0901317 and DMSO
T2 construct: GST-PXR LBD protein (cat. # PV4841) were purchased from Thermo Fisher Scientific; purchased Thermo Fisher Scientific PV4841
T2 sequence (O75469 146-433 limits assumed): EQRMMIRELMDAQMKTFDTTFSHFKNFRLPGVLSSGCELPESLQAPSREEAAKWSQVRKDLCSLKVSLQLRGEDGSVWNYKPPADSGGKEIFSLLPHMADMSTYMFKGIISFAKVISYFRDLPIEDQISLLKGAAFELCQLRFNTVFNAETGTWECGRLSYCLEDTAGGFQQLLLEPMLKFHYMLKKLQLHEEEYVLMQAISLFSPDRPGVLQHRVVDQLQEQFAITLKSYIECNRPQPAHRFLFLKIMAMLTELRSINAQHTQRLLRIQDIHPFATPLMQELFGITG
Method: The TR-FRET PXR LBD SRC-1 recruitment assay measures PXR LBD interaction with a fluorescently labeled SRC-1 peptide (Supplementary Figure S1) and was performed as previously described with minor modifications ([23]). […] FAM-SRC-1 peptide solution (15 μl/well, 133.3 nM in assay buffer) was dispensed into 384-well black low-volume assay plates. An Echo 650 Acoustic Liquid Handler then dispensed 60 nl/well of compound stocks or DMSO. […] The plates were shaken at 900 rpm (80 × g) on an IKA MTS 2/4 digital microtiter shaker for 1 min then centrifuged at 1000 rpm (201 × g) for 30 s in an Eppendorf 5810 centrifuge equipped with an A-4-62 swing-bucket rotor. The plates were protected from light exposure and incubated for 1 h at room temperature (RT). After incubation, the TR-FRET signal from each well was collected with a PHERAstar FS Microplate Reader (BMG Labtech). The measured relative fluorescence units (RFU) were normalized for each well using equation (2),

[4] = biological target: T2, PXR LBD; assay: TR-FRET PXR LBD ligand binding assay; conditions: TR-FRET competition with BODIPY FL vindoline
Method: The TR-FRET PXR LBD ligand binding assay measures binding of PXR ligands by competition with a fluorescently labeled ligand (BODIPY FL vindoline) (Supplementary Figure S3) and was performed as previously described with minor modifications ([24]). […] BODIPY FL vindoline (15 μl/well, 133.3 nM in assay buffer) was dispensed into 384-well low-volume black assay plates. An Echo 650 Acoustic Liquid Handler then dispensed 60 nl/well of compound stocks or DMSO.

[5] = system: PXR; assay: RNA induction in HepaRG: PXR RNA (RT-qPCR); type: cell-based, human; conditions: differentiated HepaRG, 24 h; FC relative to DMSO
Method: (§1) Experiments with HepaRG cells were conducted similarly to previously described ([45]), with modifications. HepaRG cells were seeded in collagen-coated 24-well plates at 5 × 10^5 cells/well in HCM. Cells were differentiated for two weeks with HCM containing 2% DMSO. The cells were then treated with the respective chemicals for 24 h in HCM. The final DMSO concentration for the treatment was 0.5%. Total RNA was isolated from cells with Maxwell 16 LEV SimplyRNA Tissue Kits (Promega), and cDNA was generated from 250 ng of RNA with the SuperScript VILO cDNA Synthesis Kit (Thermo Fisher Scientific). Quantitative real-time polymerase chain reaction (RT-qPCR) was conducted with 2 μl of cDNA using TaqMan Fast Advanced Master Mix (Applied Biosystems) in an Applied Biosystems 7500 Fast Real-Time PCR System. TaqMan gene expression assays specific for CYP3A4 (Hs00604506_m1), PXR (Hs01114267_m1), MYC (Hs00153408_m1) and RNA18S (Hs03928990_g1) were purchased from Thermo Fisher Scientific. Fold induction values were calculated according to the 2^−ΔΔCt method, where ΔCt represents the differences in cycle threshold numbers between the target gene and reference gene and ΔΔCt represents the relative change in these differences between the control and treatment groups ([46]). RNA18S was used as the reference gene for relative quantification of all other genes.

[6] = system: CYP3A4; conditions: cited from earlier work
[7] = system: CYP3A4; assay: RNA induction in HepaRG: CYP3A4 mRNA (RT-qPCR); conditions: differentiated HepaRG, 24 h
Method: as §1

Cc1sc2c(c1C)C(c1ccc(Cl)cc1)=N[C@@H](CC(=O)OC(C)(C)C)c1nnc(C)n1-2 [JQ1, (+)-JQ1]
activation of CYP3A4-luciferase reporter in the presence of mPXR [1]: did not activate the CYP3A4-luciferase reporter in the presence of mPXR
cytotoxicity (cell viability) [2]: exhibited cytotoxicity at the concentrations required to activate the CYP3A4-luciferase reporter
recruitment of SRC-1 peptide to purified PXR LBD [3]: induced SRC-1 recruitment; also recorded: JQ1 > birabresib > CPI-203
binding to purified PXR LBD (binding potency) [4]: comparable to rifampicin in binding potencies; also recorded: JQ1 > birabresib > CPI-203
PXR RNA expression [5]: greatly reduced PXR RNA
CYP3A4 substrate [6]: is a CYP3A4 substrate
endogenous CYP3A4 mRNA expression ([7]; FC relative to DMSO): modestly induced CYP3A4 mRNA
endogenous CYP3A4 mRNA expression on co-treatment with SPA70 ([7]; co-treated with SPA70): largely diminished
